# From paper PMC8167039, “A Comparative Study of Human and Zebrafish Pregnane X Receptor Activities of Pesticides and Steroids Using In Vitro Reporter Gene Assays” (Frontiers in Endocrinology, 2021)
# Entries after “also recorded” stand apart in the source; their conditions may differ.
# Molecular target: T1, zfPXR (Danio rerio, UniProt A5WYG8)
# Experiment: HG5LN Gal4-zfPXR luciferase reporter gene assay, agonism
# Assay type: cell-based, zebrafish
# Parameters: Emax: dose or concentration left out as unconfirmed
# Conditions: not given
# Description: (§1) The cell lines used in this study are listed in Supplementary Table 3 . The HG5LN, HG5LN Gal4-hPXR and HG5LN Gal4-zfPXR cell lines were previously described ([19]). Briefly, HeLa cells stably transfected with the GAL4RE5-βGlobin-Luc-SVNeo plasmid (HG5LN cell line) ([15]). HG5LN cells were stably transfected with the pSG5-GAL4(DBD)-hPXR(LBD)-puro or pSG5-GAL4(DBD)-zfPXR(LBD)-puro plasmids.
# (§2) HG5LN cells were cultured in Dulbecco’s Modified Eagle Medium: Nutrient Mixture F-12 (D-MEM/F-12) containing phenol red and 1 g/L glucose and supplemented with 5% fetal bovine serum, 100 units/mL of penicillin and 100 µg/mL of streptomycin supplemented with 1 mg/mL geneticin in a 5% CO2 humidified atmosphere at 37°C. HG5LN GAL4-hPXR and GAL4-zfPXR were cultured in the same culture medium supplemented with 0.5 µg/mL puromycin.
# (§3) The ability of chemicals to modulate the hPXR and zfPXR was investigated in HG5LN, HG5LN-hPXR, HG5LN-zfPXR, and ZFL-zfPXR cell lines after exposure to serial dilutions of the compounds and measurement of luciferase activity. […] Briefly, cells were seeded in 96-well white opaque flat bottom microplates at 0.5 10^5 cells per well in culture medium. […] Cells were then exposed to a concentration range of the compounds by using an automated workstation (Biomek 3000, Beckman Coulter). The final concentration of DMSO in the well never exceeds 0.1% (v/v). After 16h of exposure, medium was removed and 50 µL of test medium containing 0.3 mM D-luciferin were added per well. After 5 min, the production of light was assessed in living cells using microplate reader (MicroBeta, PerkinElmer SAS, Courtabœuf, France).
# (§4) In the transactivation assay, each compound was tested at various concentrations in three independent experiments at least. For each experiment, tests were performed in quadruplicates for each concentration, and data are expressed by means values with standard deviations. […] This allowed to determine EC50 and IC50 values of tested chemicals.
# T1 sequence (A5WYG8 entry or part of it): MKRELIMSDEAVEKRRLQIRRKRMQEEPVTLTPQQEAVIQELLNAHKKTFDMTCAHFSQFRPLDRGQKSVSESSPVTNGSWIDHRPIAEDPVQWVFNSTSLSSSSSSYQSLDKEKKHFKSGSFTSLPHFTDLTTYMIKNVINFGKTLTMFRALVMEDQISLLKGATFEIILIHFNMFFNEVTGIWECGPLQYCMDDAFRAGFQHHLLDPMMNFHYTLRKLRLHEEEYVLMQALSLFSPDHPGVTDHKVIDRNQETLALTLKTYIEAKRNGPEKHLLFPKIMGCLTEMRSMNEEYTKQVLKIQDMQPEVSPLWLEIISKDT
row,SMILES,EC50 [µM]
1,CCCOC/C(=N\c1ccc(Cl)cc1C(F)(F)F)n1ccnc1 [Triflurnizole],6 ± 0.8

# Same assay, conditions: HG5LN Gal-zfPXR cells
row,SMILES,effect on zfPXR transcriptional activity (in words)
1,"C[C@@H]1C[C@H]2[C@@H]3CCC4=CC(=O)C=C[C@]4(C)[C@@]3(F)[C@@H](O)C[C@]2(C)[C@@]1(O)C(=O)CO [Dexamethasone, reference compound]",no effect
2,"CC(=O)[C@H]1[C@H](C#N)C[C@H]2[C@@H]3CC=C4C[C@@H](O)CC[C@]4(C)[C@H]3CC[C@@]21C [Pregnenolone16α-carbonitrile, reference compound]",did not activate; also recorded: do not modulate

# Same assay, conditions: HG5LN Gal-zfPXR cells; listed as dexamethasone
row,SMILES,effect on zfPXR transcriptional activity (in words)
1,"C[C@@H]1C[C@H]2[C@@H]3CCC4=CC(=O)C=C[C@]4(C)[C@@]3(F)[C@@H](O)C[C@]2(C)[C@@]1(O)C(=O)CO [Dexamethasone, reference compound]",do not modulate

# Same assay, conditions: HG5LN, read-out: zfPXR agonism Max
row,SMILES,Emax [%]
1,CCCSP(=O)(OCC)SCCC [Ethoprophos],38
2,CCCOC/C(=N\c1ccc(Cl)cc1C(F)(F)F)n1ccnc1 [Triflurnizole],48

# Same assay, conditions: HG5LN-zfPXR cells, 16h exposure; n.a. = not active; read-out: zfPXR agonism EC50
row,SMILES,EC50 [µM]
1,O=C1C2(Cl)C3(Cl)C4(Cl)C(Cl)(Cl)C5(Cl)C3(Cl)C1(Cl)C5(Cl)C24Cl (centres unmarked) [Chlordecone],75 ± 23
2,"C#C[C@]1(O)CC[C@H]2[C@@H]3CCC4=CC(=O)CC[C@@H]4[C@H]3C(=C)C[C@@]21CC [Etonogestrel, reference compound]",2.3 ± 0.2
3,ClC1=C(Cl)[C@]2(Cl)[C@@H]3[C@@H](Cl)[C@@H]4O[C@@H]4[C@@H]3[C@@]1(Cl)C2(Cl)Cl [Heptachlor endo-epoxide],2 ± 0.9
4,ClC1=C(Cl)[C@]2(Cl)[C@@H]3[C@@H](Cl)[C@H]4O[C@H]4[C@@H]3[C@@]1(Cl)C2(Cl)Cl [Heptachlor exo-epoxide],1.4 ± 0.04
5,"C#C[C@]1(O)CC[C@H]2[C@@H]3CCC4=CCCC[C@@H]4[C@H]3CC[C@@]21C [Lynestrenol, reference compound]",0.23 ± 0.01
6,ClC1=C(Cl)[C@]2(Cl)[C@H]3[C@H]([C@H](Cl)C(Cl)[C@@H]3Cl)[C@@]1(Cl)C2(Cl)Cl (stereo partly drawn) [Trans-nonachlor],29 ± 5.5

# Same assay, conditions: HG5LN-zfPXR; compounds marked *, not tested above 3 µM (clotrimazole: 1 µM); % of maximal induced by 1 µM clotrimazole; DMSO 28 ± 1.7
row,SMILES,zfPXR agonism Max [%]
1,O=C1C2(Cl)C3(Cl)C4(Cl)C(Cl)(Cl)C5(Cl)C3(Cl)C1(Cl)C5(Cl)C24Cl (centres unmarked) [Chlordecone],32
2,CCOP(=S)(OCC)Oc1nc(Cl)c(Cl)cc1Cl [Chlorpyriphos],101
3,ClC1=C(Cl)[C@]2(Cl)[C@@H]3[C@@H](Cl)[C@@H]4O[C@@H]4[C@@H]3[C@@]1(Cl)C2(Cl)Cl [Heptachlor endo-epoxide],32
4,ClC1=C(Cl)[C@]2(Cl)[C@@H]3[C@@H](Cl)[C@H]4O[C@H]4[C@@H]3[C@@]1(Cl)C2(Cl)Cl [Heptachlor exo-epoxide],76

# Same assay, conditions: HG5LN-zfPXR; maximal activity at 10 µM, % of maximal induced by 1 µM clotrimazole; DMSO 28 ± 1.7
row,SMILES,zfPXR agonism Max [%]
1,ClC1=C(Cl)[C@]2(Cl)[C@H]3[C@H]([C@H](Cl)C(Cl)[C@@H]3Cl)[C@@]1(Cl)C2(Cl)Cl (stereo partly drawn) [Trans-nonachlor],43

# Same assay, conditions: HG5LN; read-out: zfPXR agonism Max
row,SMILES,Emax at 10 µM [%]
1,"C#C[C@]1(O)CC[C@H]2[C@@H]3CCC4=CC(=O)CC[C@@H]4[C@H]3C(=C)C[C@@]21CC [Etonogestrel, reference compound]",90

# Molecular target: T1, zfPXR
# Experiment: HG5LN Gal4-zfPXR luciferase reporter gene assay, antagonism (coexposure with clotrimazole)
# Assay type: cell-based, zebrafish
# Conditions: not given
# Description: as §1, §2, §3, §4
row,SMILES,IC50 [µM]
1,CC1(C)[C@H](C(=O)O[C@H](C#N)c2cccc(Oc3ccccc3)c2)[C@@H]1/C=C(\Cl)C(F)(F)F (racemic) [λ-Cyhalothrin],6.8 ± 1
2,CC1(C)C(C=C(Cl)Cl)C1C(=O)OC(C#N)c1cccc(Oc2ccccc2)c1 (centres unmarked) [Cypermethrin],5 ± 0.3
3,ClC1=C(Cl)[C@]2(Cl)[C@@H]3[C@@H]4C[C@@H]([C@H]5O[C@@H]45)[C@@H]3[C@@]1(Cl)C2(Cl)Cl [Dieldrin],19 ± 8.8

# Same assay, conditions: HG5LN, read-out: zfPXR antagonism Min
row,SMILES,remaining activity at 10 µM [%]
1,CC1(C)[C@H](C(=O)O[C@H](C#N)c2cccc(Oc3ccccc3)c2)[C@@H]1/C=C(\Cl)C(F)(F)F (racemic) [λ-Cyhalothrin],45
2,CC1(C)C(C=C(Cl)Cl)C1C(=O)OC(C#N)c1cccc(Oc2ccccc2)c1 (centres unmarked) [Cypermethrin],31

# Same assay, conditions: HG5LN; read-out: zfPXR antagonism Min
row,SMILES,remaining activity at 10 µM [%]
1,COC(=O)C(C)Oc1ccc(Oc2ccc(Cl)cc2Cl)cc1 (centres unmarked) [Diclofop-methyl],65

# Same assay, conditions: read-out: zfPXR antagonism IC50
row,SMILES,IC50 [µM]
1,c1ccc2[nH]c(-c3cscn3)nc2c1 [Thiabendazole],10 ± 0.7

# Molecular target: T2, hPXR (Homo sapiens, UniProt O75469)
# T2 sequence (O75469 146-433 limits assumed): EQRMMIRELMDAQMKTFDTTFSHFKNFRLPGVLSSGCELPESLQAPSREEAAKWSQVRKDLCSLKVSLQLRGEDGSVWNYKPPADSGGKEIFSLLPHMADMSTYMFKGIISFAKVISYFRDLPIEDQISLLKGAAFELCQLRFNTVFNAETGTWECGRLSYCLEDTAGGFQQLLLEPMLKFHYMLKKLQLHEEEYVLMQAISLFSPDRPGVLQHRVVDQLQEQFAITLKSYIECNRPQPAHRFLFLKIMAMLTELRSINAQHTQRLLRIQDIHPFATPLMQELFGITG
# Experiment: HG5LN Gal4-hPXR luciferase reporter gene assay, agonism
# Conditions: not given
# Description: as §1, §2, §3, §4
SMILES,EC50 [µM],hPXR agonism Max [%],effect on hPXR transcriptional activity (in words)
CC1(C)[C@H](C(=O)O[C@H](C#N)c2cccc(Oc3ccccc3)c2)[C@@H]1/C=C(\Cl)C(F)(F)F (racemic) [λ-Cyhalothrin],1.7 ± 0.2,,
CCOP(=S)(OCC)Oc1nc(Cl)c(Cl)cc1Cl [Chlorpyriphos],,95,
"C[C@@H]1C[C@H]2[C@@H]3CCC4=CC(=O)C=C[C@]4(C)[C@@]3(F)[C@@H](O)C[C@]2(C)[C@@]1(O)C(=O)CO [Dexamethasone, reference compound]",,,no effect
ClC1=C(Cl)[C@]2(Cl)[C@@H]3[C@@H]4C[C@@H]([C@H]5O[C@@H]45)[C@@H]3[C@@]1(Cl)C2(Cl)Cl [Dieldrin],9.2 ± 1.4,62,
"C#C[C@]1(O)CC[C@H]2[C@@H]3CCC4=CC(=O)CC[C@@H]4[C@H]3C(=C)C[C@@]21CC [Etonogestrel, reference compound]",24 ± 4.6,,
ClC1=C(Cl)[C@]2(Cl)[C@@H]3[C@@H](Cl)[C@@H]4O[C@@H]4[C@@H]3[C@@]1(Cl)C2(Cl)Cl [Heptachlor endo-epoxide],,69,
ClC1=C(Cl)[C@]2(Cl)[C@@H]3[C@@H](Cl)[C@H]4O[C@H]4[C@@H]3[C@@]1(Cl)C2(Cl)Cl [Heptachlor exo-epoxide],,85,
"C#C[C@]1(O)CC[C@H]2[C@@H]3CCC4=CCCC[C@@H]4[C@H]3CC[C@@]21C [Lynestrenol, reference compound]",,30,
CCCOC/C(=N\c1ccc(Cl)cc1C(F)(F)F)n1ccnc1 [Triflurnizole],21 ± 14,,

# Same assay, conditions: HG5LN Gal-hPXR cells
row,SMILES,effect on hPXR transcriptional activity (in words)
1,"CC(=O)[C@H]1[C@H](C#N)C[C@H]2[C@@H]3CC=C4C[C@@H](O)CC[C@]4(C)[C@H]3CC[C@@]21C [Pregnenolone16α-carbonitrile, reference compound]",partially activated

# Same assay, conditions: HG5LN-hPXR; compounds marked *, not tested above 3 µM (clotrimazole, SPA70: 1 µM); % of maximal induced by 3 µM SR 12813; DMSO 19 ± 6
row,SMILES,hPXR agonism Max [%]
1,O=C1C2(Cl)C3(Cl)C4(Cl)C(Cl)(Cl)C5(Cl)C3(Cl)C1(Cl)C5(Cl)C24Cl (centres unmarked) [Chlordecone],46

# Same assay, conditions: HG5LN-hPXR; maximal activity at 10 µM, % of maximal induced by 3 µM SR 12813; DMSO 19 ± 6
row,SMILES,hPXR agonism Max [%]
1,CC1(C)[C@H](C(=O)O[C@H](C#N)c2cccc(Oc3ccccc3)c2)[C@@H]1/C=C(\Cl)C(F)(F)F (racemic) [λ-Cyhalothrin],107
2,CCCSP(=O)(OCC)SCCC [Ethoprophos],33
3,"CC(=O)[C@H]1[C@H](C#N)C[C@H]2[C@@H]3CC=C4C[C@@H](O)CC[C@]4(C)[C@H]3CC[C@@]21C [Pregnenolone16α-carbonitrile, reference compound]",32
4,ClC1=C(Cl)[C@]2(Cl)[C@H]3[C@H]([C@H](Cl)C(Cl)[C@@H]3Cl)[C@@]1(Cl)C2(Cl)Cl (stereo partly drawn) [Trans-nonachlor],70

# Same assay, conditions: read-out: hPXR agonism EC50; HG5LN-hPXR cells, 16h exposure; n.a. = not active
row,SMILES,EC50 [µM]
1,O=C1C2(Cl)C3(Cl)C4(Cl)C(Cl)(Cl)C5(Cl)C3(Cl)C1(Cl)C5(Cl)C24Cl (centres unmarked) [Chlordecone],19 ± 5.6
2,CCOP(=S)(OCC)Oc1nc(Cl)c(Cl)cc1Cl [Chlorpyriphos],2.7 ± 0.4
3,ClC1=C(Cl)[C@]2(Cl)[C@@H]3[C@@H](Cl)[C@@H]4O[C@@H]4[C@@H]3[C@@]1(Cl)C2(Cl)Cl [Heptachlor endo-epoxide],3.4 ± 0.7
4,ClC1=C(Cl)[C@]2(Cl)[C@@H]3[C@@H](Cl)[C@H]4O[C@H]4[C@@H]3[C@@]1(Cl)C2(Cl)Cl [Heptachlor exo-epoxide],1.9 ± 0.1
5,"CC(=O)[C@H]1[C@H](C#N)C[C@H]2[C@@H]3CC=C4C[C@@H](O)CC[C@]4(C)[C@H]3CC[C@@]21C [Pregnenolone16α-carbonitrile, reference compound]",22 ± 9.7
6,ClC1=C(Cl)[C@]2(Cl)[C@H]3[C@H]([C@H](Cl)C(Cl)[C@@H]3Cl)[C@@]1(Cl)C2(Cl)Cl (stereo partly drawn) [Trans-nonachlor],5.3 ± 0.2
